Among the data in patent US20250163038A1, “CBL-B MODULATORS AND USES THEREOF” (Nimbus Clio, Inc., priority 2021, published 2025) are IC50 and EC50 values, retold here.

SMILES strings stand for the structures. Some results are limits rather than exact numbers.

Experiment [1] has as its target T1, Recombinant human c-Cbl (aa 47-435) (Homo sapiens, UniProt P22681).
T1 sequence (P22681 47-435): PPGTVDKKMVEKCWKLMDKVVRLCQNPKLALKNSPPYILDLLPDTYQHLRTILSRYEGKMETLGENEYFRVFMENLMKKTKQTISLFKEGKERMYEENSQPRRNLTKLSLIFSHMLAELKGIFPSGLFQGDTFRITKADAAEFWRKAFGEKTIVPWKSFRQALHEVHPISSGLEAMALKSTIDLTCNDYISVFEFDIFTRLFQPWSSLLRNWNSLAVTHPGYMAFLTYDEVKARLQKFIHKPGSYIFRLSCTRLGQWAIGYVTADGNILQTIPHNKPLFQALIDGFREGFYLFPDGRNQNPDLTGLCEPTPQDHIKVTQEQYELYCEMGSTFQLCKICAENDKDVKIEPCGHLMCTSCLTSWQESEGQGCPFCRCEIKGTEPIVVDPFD
Nature of the experiment: c-Cbl Biochemical Assay (TR-FRET). Particulars: hc-Cbl Biochemical Assay (TR-FRET); read-out: TR-FRET hcCbl IC50. On the technique in general: Time-resolved FRET reads energy transfer from a long-lived donor to a nearby acceptor.

The subject of experiment [2] is Jurkat (clone E6-1) cells with NFAT luciferase reporter. Nature of the experiment: Jurkat reporter assay (NFAT Luciferase). Format: cell-based. Particulars: Homo sapiens; Jurkat NFAT luciferase reporter cells, anti-CD3 stimulation, 6 hr; read-out: Jurkat NFAT EC50. (In general: Reporter assays use an easily measured gene product as a stand-in for the process of interest.)

Experiment [3] addresses Recombinant human Cbl-b (aa 36-427) (Homo sapiens, UniProt Q13191). In words: Cbl-b Biochemical Assay (TR-FRET). The following applies: read-out: TR-FRET hCbl-b IC50.

Sequence of Recombinant human Cbl-b (aa 36-427) (Q13191 36-427): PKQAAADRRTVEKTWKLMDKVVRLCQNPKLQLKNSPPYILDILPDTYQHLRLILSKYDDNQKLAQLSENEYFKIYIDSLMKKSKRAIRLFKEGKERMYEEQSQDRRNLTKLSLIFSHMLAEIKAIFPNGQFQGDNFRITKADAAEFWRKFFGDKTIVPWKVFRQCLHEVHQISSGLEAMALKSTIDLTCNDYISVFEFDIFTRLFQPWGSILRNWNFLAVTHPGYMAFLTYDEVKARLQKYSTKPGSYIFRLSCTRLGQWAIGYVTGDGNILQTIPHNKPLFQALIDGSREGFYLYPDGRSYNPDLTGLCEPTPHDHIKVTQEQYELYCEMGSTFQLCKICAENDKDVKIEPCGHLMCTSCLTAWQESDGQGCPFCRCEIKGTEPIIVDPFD

For orientation: IC50 means the concentration needed to halve the response being measured. A word on the EC50: it is the concentration needed to bring the measured effect to its halfway point. Take `C[C@H]1CCCN(Cc2ccc3oc(-c4cc(-c5ccc(C#N)cc5-c5nncn5C)cc(C5CC5)n4)nc3c2)C1` [AGG-2, 4-[2-Cyclopropyl-6-(5-{[(3S)-3-methylpiperidin-1-yl]methyl}-1,3-benzoxazol-2-yl)pyridin-4-yl]-3-(4-methyl-1,2,4-triazol-3-yl)benzonitrile]: the IC50 in experiment [1] was 200 to 1000 nM; in experiment [3], less than 200 nM. Further, in experiment [2], the EC50 was in the range of 200 to 1000 nM.

For `Cn1cnnc1-c1cc(C#N)ccc1-c1cc(-c2nc3cc(CN4C[C@@H]5C[C@H]4CO5)cc(F)c3o2)nc(C2CC2)c1` [AGH-4, 4-(2-Cyclopropyl-6-{7-fluoro-5-[(1S,4S)-2-oxa-5-azabicyclo[2.2.1]heptan-5-ylmethyl]-1,3-benzoxazol-2-yl}pyridin-4-yl)-3-(4-methyl-1,2,4-triazol-3-yl)benzonitrile], the IC50 in experiment [1] and in experiment [3] was 200 to 1000 nM in each case. Moreover, the EC50 in experiment [2] fell in the range of 1000 to 10000 nM.

For `C[C@H]1CCCN(Cc2cc(F)c3oc(-c4cc(-c5ccc(C#N)cc5-c5nncn5C)cc(C5CC5)n4)nc3c2)C1` [AGI-1, 4-[2-Cyclopropyl-6-(7-fluoro-5-{[(3S)-3-methylpiperidin-1-yl]methyl}-1,3-benzoxazol-2-yl)pyridin-4-yl]-3-(4-methyl-1,2,4-triazol-3-yl)benzonitrile], the IC50 in experiment [1] and in experiment [3] was less than 200 nM throughout. The EC50 in experiment [2] is less than 200 nM.

Regarding `COCC(C)(C)NCc1cc(C)c2oc(-c3cc(-c4ccc(F)cc4-c4nncn4C)cc(C4CC4)n3)nc2c1` [AGJ-1, [(2-{6-Cyclopropyl-4-[4-fluoro-2-(4-methyl-1,2,4-triazol-3-yl)phenyl]pyridin-2-yl}-7-methyl-1,3-benzoxazol-5-yl)methyl](1-methoxy-2-methylpropan-2-yl)amine], the IC50 is 1000 to 10000 nM in experiment [1] and less than 200 nM in experiment [3]. Besides, the EC50 in experiment [2] was 200 to 1000 nM.

Regarding `COC[C@H](C)NCc1cc(C)c2oc(-c3cc(-c4ccc(F)cc4-c4nncn4C)cc(C4CC4)n3)nc2c1` [AGK-1, [(2-{6-Cyclopropyl-4-[4-fluoro-2-(4-methyl-1,2,4-triazol-3-yl)phenyl]pyridin-2-yl}-7-methyl-1,3-benzoxazol-5-yl)methyl][(2S)-1-methoxypropan-2-yl]amine], the IC50 in experiment [1] and in experiment [3] was less than 200 nM in each case. The EC50 in experiment [2] was less than 200 nM.

Regarding `COC[C@@H](C)NCc1cc(C)c2oc(-c3cc(-c4ccc(F)cc4-c4nncn4C)cc(C4CC4)n3)nc2c1` [AGL-1, [(2-{6-Cyclopropyl-4-[4-fluoro-2-(4-methyl-1,2,4-triazol-3-yl)phenyl]pyridin-2-yl}-7-methyl-1,3-benzoxazol-5-yl)methyl][(2R)-1-methoxypropan-2-yl]amine], the IC50 was 200 to 1000 nM in experiment [1] and less than 200 nM in experiment [3]. Besides, the EC50 in experiment [2] was in the range of 200 to 1000 nM.

Turning to `COC(=O)C1(c2cc(F)c3oc(-c4cc(-c5ccc(F)cc5-c5nncn5C)cc(C5CC5)n4)nc3c2)CC1` [AGM-8, Methyl 1-(2-{6-cyclopropyl-4-[4-fluoro-2-(4-methyl-1,2,4-triazol-3-yl)phenyl]pyridin-2-yl}-7-fluoro-1,3-benzoxazol-5-yl) cyclopropane-1-carboxylate], the values for the IC50 in experiment [1] and in experiment [3] were 1000 to 10000 nM and 200 to 1000 nM, respectively. In experiment [2], the EC50 lay in the range of 1000 to 10000 nM.

In the case of `Cn1cnnc1-c1cc(F)ccc1-c1cc(-c2nc3cc(C4(N)CC4)cc(F)c3o2)nc(C2CC2)c1` [AGN-3, 1-(2-{6-Cyclopropyl-4-[4-fluoro-2-(4-methyl-1,2,4-triazol-3-yl)phenyl]pyridin-2-yl}-7-fluoro-1,3-benzoxazol-5-yl) cyclopropan-1-amine], the IC50 in experiment [1] was 200 to 1000 nM; in experiment [3] it was less than 200 nM. Besides, the EC50 in experiment [2] lay in the range of 1000 to 10000 nM.

Take `COC1(CNC2(c3cc(F)c4oc(-c5cc(-c6ccc(F)cc6-c6nncn6C)cc(C6CC6)n5)nc4c3)CC2)CCC1` [AGO-2, 1-(2-{6-Cyclopropyl-4-[4-fluoro-2-(4-methyl-1,2,4-triazol-3-yl)phenyl]pyridin-2-yl}-7-fluoro-1,3-benzoxazol-5-yl)-N-[(1-methoxycyclobutyl)methyl]cyclopropan-1-amine]: the concentration for half-maximal inhibition (IC50) in experiment [1] is 200 to 1000 nM; in experiment [3] it was less than 200 nM. Besides, the EC50 in experiment [2] lay in the range of 200 to 1000 nM.

On to `Cc1c(F)c(CO)cc2nc(-c3cc(-c4ccc(F)cc4-c4nncn4C)cc(C4CC4)n3)oc12` [AGP-7, (2-{6-Cyclopropyl-4-[4-fluoro-2-(4-methyl-1,2,4-triazol-3-yl)phenyl]pyridin-2-yl}-6-fluoro-7-methyl-1,3-benzoxazol-5-yl)methanol], for which the IC50 in experiment [1] lay in the range of 1000 to 10000 nM; in experiment [3], 200 to 1000 nM. Also, the EC50 in experiment [2] lay in the range of 1000 to 10000 nM.

As to `Cc1c(F)c(CN[C@@H]2CCC[C@@H]2O)cc2nc(-c3cc(-c4ccc(F)cc4-c4nncn4C)cc(C4CC4)n3)oc12` [AGQ-2, (1S,2R)-2-{[(2-{6-Cyclopropyl-4-[4-fluoro-2-(4-methyl-1,2,4-triazol-3-yl)phenyl]pyridin-2-yl}-6-fluoro-7-methyl-1,3-benzoxazol-5-yl)methyl]amino}cyclopentan-1-ol], the IC50 in experiment [1] and in experiment [3] was less than 200 nM each time. Besides, the EC50 in experiment [2] is less than 200 nM.

Turning to `Cc1cc(C(C)(C)N)cc2nc(-c3cc(-c4ccc(F)cc4-c4nncn4C)cc(C4CC4)n3)oc12` [AGR-9, 2-(2-{6-Cyclopropyl-4-[4-fluoro-2-(4-methyl-1,2,4-triazol-3-yl)phenyl]pyridin-2-yl}-7-methyl-1,3-benzoxazol-5-yl)propan-2-amine], the IC50 in experiment [1] fell in the range of 1000 to 10000 nM; in experiment [3], 200 to 1000 nM. Further, the EC50 in experiment [2] is 1000 to 10000 nM.

On to `COC[C@H](C)NCc1cc(C)c2oc(-c3cccc(-c4ccc(F)cc4-c4nncn4C)c3)nc2c1` [AGS-4, ({2-[4′-Fluoro-2′-(4-methyl-1,2,4-triazol-3-yl)-[1,1′-biphenyl]-3-yl]-7-methyl-1,3-benzoxazol-5-yl}methyl)[(2S)-1-methoxypropan-2-yl]amine], for which the IC50 in experiment [1] and in experiment [3] was less than 200 nM throughout. Moreover, the EC50 in experiment [2] is less than 200 nM.

As to `Cn1cnnc1-c1cc(F)ccc1-c1cc(-c2nc3cc(CNCC4CCC4)cc(F)c3o2)nc(C2CC2)c1` [AGT-1, (Cyclobutylmethyl)[(2-{6-cyclopropyl-4-[4-fluoro-2-(4-methyl-1,2,4-triazol-3-yl)phenyl]pyridin-2-yl}-7-fluoro-1,3-benzoxazol-5-yl)methyl]amine], the IC50 in experiment [1] and in experiment [3] was less than 200 nM each time. Also, in experiment [2], the EC50 was less than 200 nM.

For the molecule `Cc1cc(C(C)NCC2CCC2)cc2nc(-c3cc(-c4ccc(F)cc4-c4nncn4C)cc(C4CC4)n3)oc12` (stereo not drawn) [AGU-1, (cyclobutylmethyl)[1-(2-{6-cyclopropyl-4-[4-fluoro-2-(4-methyl-1,2,4-triazol-3-yl)phenyl]pyridin-2-yl}-7-methyl-1,3-benzoxazol-5-yl)ethyl]amine], the IC50 in experiment [1] and in experiment [3] was less than 200 nM each time. Also, the EC50 in experiment [2] is less than 200 nM.

In the case of `Cc1cc([C@H](C)NCC2CCC2)cc2nc(-c3cc(-c4ccc(F)cc4-c4nncn4C)cc(C4CC4)n3)oc12` [AGX-1, (cyclobutylmethyl)[(1S)-1-(2-{6-cyclopropyl-4-[4-fluoro-2-(4-methyl-1,2,4-triazol-3-yl)phenyl]pyridin-2-yl}-7-methyl-1,3-benzoxazol-5-yl)ethyl]amine], the IC50 in experiment [1] and in experiment [3] was less than 200 nM throughout. Besides, the EC50 in experiment [2] was less than 200 nM.

`Cc1cc([C@@H](C)NCC2CCC2)cc2nc(-c3cc(-c4ccc(F)cc4-c4nncn4C)cc(C4CC4)n3)oc12` [AGY-1, (cyclobutylmethyl)[(1R)-1-(2-{6-cyclopropyl-4-[4-fluoro-2-(4-methyl-1,2,4-triazol-3-yl)phenyl]pyridin-2-yl}-7-methyl-1,3-benzoxazol-5-yl)ethyl]amine]: the IC50 in experiment [1] and in experiment [3] was less than 200 nM throughout. Moreover, in experiment [2], the EC50 was less than 200 nM.

As for `CCNCc1cc2nc(-c3cc(-c4ccc(F)cc4-c4nncn4C)cc(C4CC4)n3)oc2c(F)c1F` [AGZ-2, [(2-{6-cyclopropyl-4-[4-fluoro-2-(4-methyl-1,2,4-triazol-3-yl)phenyl]pyridin-2-yl}-6,7-difluoro-1,3-benzoxazol-5-yl)methyl](ethyl)amine], the IC50 was 200 to 1000 nM in experiment [1] and less than 200 nM in experiment [3]. Also, in experiment [2], the EC50 was 200 to 1000 nM.

As to `Cn1cnnc1-c1cc(F)ccc1-c1cccc(-c2nc3cc(CNCC4(O)CC4)cc(C(F)(F)F)c3o2)c1` [AH-2, 1-((((2-(4′-Fluoro-2′-(4-methyl-4H-1,2,4-triazol-3-yl)-[1,1′-biphenyl]-3-yl)-7-(trifluoromethyl)benzo[d]oxazol-5-yl)methyl)amino)methyl)cyclopropan-1-ol], the IC50 in experiment [1] was 1000 to 10000 nM; in experiment [3], less than 200 nM. For the same molecule, the EC50 in experiment [2] was in the range of 200 to 1000 nM.

As for `CNCc1cc2nc(-c3cc(-c4ccc(F)cc4-c4nncn4C)cc(C4CC4)n3)oc2c(F)c1F` [AHA-2, [(2-{6-cyclopropyl-4-[4-fluoro-2-(4-methyl-1,2,4-triazol-3-yl)phenyl]pyridin-2-yl}-6,7-difluoro-1,3-benzoxazol-5-yl)methyl](methyl)amine], the IC50 in experiment [1] is 200 to 1000 nM; in experiment [3] it was less than 200 nM. Besides, the EC50 in experiment [2] was 1000 to 10000 nM.
